Experimental data published in paper PMC9944328 (Nature Communications, 2023).

What was measured:
Assay in all cases: Bystander BRET endosomal trafficking (β-arrestin 1-Nluc, FYVE-mVenus), HEK293 (SSTR2 mutants);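 further: Read-out is the BRET ratio between Nluc-fused β-arrestin 1 and the early endosome marker FYVE-mVenus, measured after ligand addition with coelenterazine h as substrate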
[1] = target: SSTR2 mutants (Homo sapiens, UniProt P30874, F265A)
Experimental: (§1) Wild-type or mutant SSTR2, β-arrestin 1-Nluc and FYVE-mVenus were co-transfected in HEK293 cells at a ratio of 1:0.5:4 on six-well plates. The next day, the transfected cells were plated on white 96-well and incubated overnight, and then cells were incubated with 90 µL HBSS containing 20 mM HEPES and coelenterazine h (5 µM) at room temperature for 40 min. After incubation, ligand was added and the signal was measured using the Synergy H1 microplate reader (BioTek) to determine a BRET ratio.

[2] = target: SSTR2 mutants (Homo sapiens, UniProt P30874, K291A); conditions: for Bottom: best-fit value
Chain of SSTR2 mutants (Homo sapiens, UniProt P30874, K291A) (P30874 whole entry K291A): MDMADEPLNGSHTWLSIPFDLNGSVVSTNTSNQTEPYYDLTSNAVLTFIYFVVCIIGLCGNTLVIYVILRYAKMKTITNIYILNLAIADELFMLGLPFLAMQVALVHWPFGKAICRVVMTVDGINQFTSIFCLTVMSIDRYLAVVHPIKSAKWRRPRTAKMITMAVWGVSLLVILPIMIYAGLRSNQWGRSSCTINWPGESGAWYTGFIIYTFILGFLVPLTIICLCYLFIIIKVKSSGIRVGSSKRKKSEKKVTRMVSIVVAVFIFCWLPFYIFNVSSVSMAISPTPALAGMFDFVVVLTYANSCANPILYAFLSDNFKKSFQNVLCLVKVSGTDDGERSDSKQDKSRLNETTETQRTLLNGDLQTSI
Experimental: as §1

[3] = target: SSTR2 mutants (Homo sapiens, UniProt P30874, Y312A)
Chain of SSTR2 mutants (Homo sapiens, UniProt P30874, Y312A) (P30874 whole entry Y312A): as the sequence (P30874 whole entry K291A) above, with A291K, Y312A counted along it
Experimental: as §1

[4] = target: SSTR2 mutants (Homo sapiens, UniProt P30874, W269A)
Chain of SSTR2 mutants (Homo sapiens, UniProt P30874, W269A) (P30874 whole entry W269A): as the sequence (P30874 whole entry K291A) above, with W269A, A291K counted along it
Experimental: as §1

[5] = target: SSTR2 mutants (Homo sapiens, UniProt P30874, P220A)
Chain of SSTR2 mutants (Homo sapiens, UniProt P30874, P220A) (P30874 whole entry P220A): as the sequence (P30874 whole entry K291A) above, with P220A, A291K counted along it
Experimental: as §1

[6] = target: SSTR2 mutants (Homo sapiens, UniProt P30874, I130A)
Chain of SSTR2 mutants (Homo sapiens, UniProt P30874, I130A) (P30874 whole entry I130A): as the sequence (P30874 whole entry K291A) above, with I130A, A291K counted along it
Experimental: as §1

[7] = tested on: SSTR2 mutants; conditions: for Fold of WT: Bystander BRET EC50
Experimental: as §1

[8] = best-fit value, F265A-1 (run 1)

Chain of SSTR2 mutants (Homo sapiens, UniProt P30874, F265A) (P30874 whole entry F265A): as the sequence (P30874 whole entry K291A) above, with F265A, A291K counted along it

Question: Which “Bottom (best-fit)” value ([1]; F265A-1 (run 1)) does the source give for `N#Cc1cccc(-c2ccc3ncc(-c4cc(F)cc(F)c4)c(N4CCC(N)CC4)c3c2)c1O` [paltusotine] here?
Answer: -0.01693

Question: And the “Bottom (best-fit)” value ([1]; F265A-2 (run 2))?
Answer: -7.978

Question: And the “Bottom (best-fit)” value ([1]; F265A-3 (run 3))?
Answer: -0.1955

Question: And the EC50 [2]?
Answer: 89.4 ± 1.33 nM

Question: What about the Emax ([2]; HEK293) of the same molecule?
Answer: 86.8 ± 5.01%

Question: And the Bottom ([2]; K291A-1 (run 1))?
Answer: 0.9895

Question: What about the Bottom ([2]; K291A-2 (run 2)) of the same molecule?
Answer: -3.341

Question: What about the Bottom ([2]; K291A-3 (run 3)) of the same molecule?
Answer: -4.686

Question: And the “Bottom (best-fit)” value ([3]; Y312A-1 (run 1))?
Answer: -0.8168

Question: And the “Bottom (best-fit)” value ([3]; Y312A-2 (run 2))?
Answer: -2.056

Question: And the “Bottom (best-fit)” value ([3]; Y312A-3 (run 3))?
Answer: 0.2687

Question: And the EC50 [4]?
Answer: 130 ± 1.65 nM

Question: And the Emax ([4]; HEK293)?
Answer: 27.2 ± 2.61%

Question: What about the “Bottom (best-fit)” value ([4]; W269A-1 (run 1)) of the same molecule?
Answer: -0.847

Question: And the “Bottom (best-fit)” value ([4]; W269A-2 (run 2))?
Answer: -3.759

Question: And the “Bottom (best-fit)” value ([4]; W269A-3 (run 3))?
Answer: 0.08484

Question: What about the “Bottom (best-fit)” value ([5]; P220A-1 (run 1)) of the same molecule?
Answer: 0.5179

Question: What about the “Bottom (best-fit)” value ([5]; P220A-2 (run 2)) of the same molecule?
Answer: 2.929

Question: What about the “Bottom (best-fit)” value ([5]; P220A-3 (run 3)) of the same molecule?
Answer: -2.504

Question: What about the “Bottom (best-fit)” value ([6]; I130A-1 (run 1)) of the same molecule?
Answer: -1.998

Question: What about the “Bottom (best-fit)” value ([6]; I130A-2 (run 2)) of the same molecule?
Answer: 0.9306

Question: And the “Bottom (best-fit)” value ([6]; I130A-3 (run 3))?
Answer: -2.793

Question: And the “Fold of WT” value ([7]; SSTR2 F294(7.35)A)?
Answer: 17.12

Question: What about the “Fold of WT” value ([7]; SSTR2 I284ECL3A) of the same molecule?
Answer: 0.73

Question: And the “Fold of WT” value ([7]; SSTR2 K291(7.32)A)?
Answer: 0.73

Question: And the “Fold of WT” value ([7]; SSTR2 N276(6.55)A)?
Answer: 1.19

Question: What about the “Fold of WT” value ([7]; SSTR2 W269(6.48)A) of the same molecule?
Answer: 1.06

Question: And the “LogEC50 (best-fit)” value ([7]; I130A-1 (run 1))?
Answer: ~ -2.099

Question: And the “Span (best-fit)” value ([7]; I130A-1 (run 1))?
Answer: ~ 8554

Question: And the “Top (best-fit)” value ([7]; I130A-1 (run 1))?
Answer: ~ 8552

Question: And the “LogEC50 (best-fit)” value ([7]; I130A-2 (run 2))?
Answer: -9.856

Question: What about the “Span (best-fit)” value ([7]; I130A-2 (run 2)) of the same molecule?
Answer: -10.4

Question: What about the “Top (best-fit)” value ([7]; I130A-2 (run 2)) of the same molecule?
Answer: -9.472

Question: What about the “LogEC50 (best-fit)” value ([7]; I130A-3 (run 3)) of the same molecule?
Answer: -9.469

Question: What about the “Span (best-fit)” value ([7]; I130A-3 (run 3)) of the same molecule?
Answer: 2.038

Question: And the “Top (best-fit)” value ([7]; I130A-3 (run 3))?
Answer: -0.7545

Question: What about the “LogEC50 (best-fit)” value ([7]; P220A-1 (run 1)) of the same molecule?
Answer: -6.735

Question: What about the “Span (best-fit)” value ([7]; P220A-1 (run 1)) of the same molecule?
Answer: 12.69

Question: And the “Top (best-fit)” value ([7]; P220A-1 (run 1))?
Answer: 13.21

Question: What about the “LogEC50 (best-fit)” value ([7]; P220A-2 (run 2)) of the same molecule?
Answer: ~ -2.138

Question: And the “Span (best-fit)” value ([7]; P220A-2 (run 2))?
Answer: ~ 22554

Question: And the “Top (best-fit)” value ([7]; P220A-2 (run 2))?
Answer: ~ 22557

Question: What about the “LogEC50 (best-fit)” value ([7]; P220A-3 (run 3)) of the same molecule?
Answer: -6.08

Question: What about the “Span (best-fit)” value ([7]; P220A-3 (run 3)) of the same molecule?
Answer: 20.28

Question: And the “Top (best-fit)” value ([7]; P220A-3 (run 3))?
Answer: 17.78

Question: And the “LogEC50 (best-fit)” value ([7]; R140A-1 (run 1))?
Answer: -8.331

Question: What about the “Span (best-fit)” value ([7]; R140A-1 (run 1)) of the same molecule?
Answer: 51.38

Question: And the “Top (best-fit)” value ([7]; R140A-1 (run 1))?
Answer: 50.75

Question: What about the “LogEC50 (best-fit)” value ([7]; R140A-2 (run 2)) of the same molecule?
Answer: -8.178

Question: What about the “Span (best-fit)” value ([7]; R140A-2 (run 2)) of the same molecule?
Answer: 55.99

Question: What about the “Top (best-fit)” value ([7]; R140A-2 (run 2)) of the same molecule?
Answer: 44.7

Question: And the “LogEC50 (best-fit)” value ([7]; R140A-3 (run 3))?
Answer: -8.181

Question: And the “Span (best-fit)” value ([7]; R140A-3 (run 3))?
Answer: 61.6

Question: What about the “Top (best-fit)” value ([7]; R140A-3 (run 3)) of the same molecule?
Answer: 61.78

Question: What about the “LogEC50 (best-fit)” value ([7]; W269A-1 (run 1)) of the same molecule?
Answer: -6.886

Question: What about the “Span (best-fit)” value ([7]; W269A-1 (run 1)) of the same molecule?
Answer: 28.05

Question: What about the “Top (best-fit)” value ([7]; W269A-1 (run 1)) of the same molecule?
Answer: 27.2

Question: What about the “LogEC50 (best-fit)” value ([7]; W269A-2 (run 2)) of the same molecule?
Answer: -6.322

Question: And the “Span (best-fit)” value ([7]; W269A-2 (run 2))?
Answer: 26.76

Question: And the “Top (best-fit)” value ([7]; W269A-2 (run 2))?
Answer: 23

Question: What about the “LogEC50 (best-fit)” value ([7]; W269A-3 (run 3)) of the same molecule?
Answer: -6.81

Question: What about the “Span (best-fit)” value ([7]; W269A-3 (run 3)) of the same molecule?
Answer: 22.83

Question: And the “Top (best-fit)” value ([7]; W269A-3 (run 3))?
Answer: 22.91

Question: And the “LogEC50 (best-fit)” value ([7]; Y312A-1 (run 1))?
Answer: -8.087

Question: And the “Span (best-fit)” value ([7]; Y312A-1 (run 1))?
Answer: 42.16

Question: And the “Top (best-fit)” value ([7]; Y312A-1 (run 1))?
Answer: 41.34

Question: And the “LogEC50 (best-fit)” value ([7]; Y312A-2 (run 2))?
Answer: -7.939

Question: What about the “Span (best-fit)” value ([7]; Y312A-2 (run 2)) of the same molecule?
Answer: 49.41

Question: And the “Top (best-fit)” value ([7]; Y312A-2 (run 2))?
Answer: 47.36

Question: And the “LogEC50 (best-fit)” value ([7]; Y312A-3 (run 3))?
Answer: -8.193

Question: And the “Span (best-fit)” value ([7]; Y312A-3 (run 3))?
Answer: 41.16

Question: What about the “Top (best-fit)” value ([7]; Y312A-3 (run 3)) of the same molecule?
Answer: 41.43

Question: What about the “Internalization of microswitch mutants” value ([7]; alanine substitution of microswitch residues) of the same molecule?
Answer: reduced receptor internalization

Question: What about the EC50 [7, 8] of the same molecule?
Answer: 11.9 µM

Question: What about the LogEC50 [7, 8] of the same molecule?
Answer: -4.926
